# Source: patent publication US20040115739A1, “Method for identifying maxi-k channel blockers for use in lowering elevated intraocular pressure using hek-293 cells” (priority 2003, published 2004)
# Assays:
# Format in all cases: cell-based
# [1] = system: endogenous potassium conductances of HEK-293 cells; assay: VIPR/FRET membrane potential assay, high-potassium addition to HEK-293 cells; settings: FIG. 1; for efficacy (inhibition of fluorescence signal) in the presence of Compound 1: HEK-293 cells, selective maxi-K channel blocker Compound 1 present; for effect on fluorescence signal caused by high-potassium addition: untransfected HEK-293 cells, different/increasing concentrations of compound
# Protocol: HEK-293 cells were plated on 96-well poly-D-lysine plates and incubated for about 16 to 24 hours at 37° C. The media was aspirated and the cells were washed once with D-PBS. Cells were incubated with 9 μM coumarin (CC2DMPE)-0.02% pluronic-127 in D-PBS for 30 minutes in the dark. Cells were washed twice with D-PBS, and incubated with 4.5 μM oxanol (DiSBAC2(3)) in the absence (Control) or presence of increasing concentrations of test compound, in the dark for 30 minutes. Plates were loaded onto a VIPR instrument and the fluorescence emission of both dyes was recorded for 10 seconds. A solution containing high-potassium was then added and the fluorescence emission of the dyes was recorded for another 10 seconds. The coumarin/oxanol ratio was calculated under both conditions. Before addition of high-potassium, this ratio was always normalized to 1.
# The signal is not affected by the presence of different concentrations of the selective maxi-K channel blocker, Compound 1. […] A useful concentration range for these agents is 3-10 μM. Importantly, in the presence of the selective maxi-K channel blocker Compound 1, the efficacy of either Compound A or Compound B is unaffected.
# [2] = target: T1, maxi-K channels transiently expressed in TsA-201 cells (Homo sapiens, UniProt Q12791); assay: VIPR/FRET membrane potential assay, maxi-K channels transiently expressed in TsA-201 cells; settings: FIG. 2
# T1 construct: expressed in transfected cells; host or cells: TsA-201 cells, transient transfection
# T1 sequence (Q12791 whole entry): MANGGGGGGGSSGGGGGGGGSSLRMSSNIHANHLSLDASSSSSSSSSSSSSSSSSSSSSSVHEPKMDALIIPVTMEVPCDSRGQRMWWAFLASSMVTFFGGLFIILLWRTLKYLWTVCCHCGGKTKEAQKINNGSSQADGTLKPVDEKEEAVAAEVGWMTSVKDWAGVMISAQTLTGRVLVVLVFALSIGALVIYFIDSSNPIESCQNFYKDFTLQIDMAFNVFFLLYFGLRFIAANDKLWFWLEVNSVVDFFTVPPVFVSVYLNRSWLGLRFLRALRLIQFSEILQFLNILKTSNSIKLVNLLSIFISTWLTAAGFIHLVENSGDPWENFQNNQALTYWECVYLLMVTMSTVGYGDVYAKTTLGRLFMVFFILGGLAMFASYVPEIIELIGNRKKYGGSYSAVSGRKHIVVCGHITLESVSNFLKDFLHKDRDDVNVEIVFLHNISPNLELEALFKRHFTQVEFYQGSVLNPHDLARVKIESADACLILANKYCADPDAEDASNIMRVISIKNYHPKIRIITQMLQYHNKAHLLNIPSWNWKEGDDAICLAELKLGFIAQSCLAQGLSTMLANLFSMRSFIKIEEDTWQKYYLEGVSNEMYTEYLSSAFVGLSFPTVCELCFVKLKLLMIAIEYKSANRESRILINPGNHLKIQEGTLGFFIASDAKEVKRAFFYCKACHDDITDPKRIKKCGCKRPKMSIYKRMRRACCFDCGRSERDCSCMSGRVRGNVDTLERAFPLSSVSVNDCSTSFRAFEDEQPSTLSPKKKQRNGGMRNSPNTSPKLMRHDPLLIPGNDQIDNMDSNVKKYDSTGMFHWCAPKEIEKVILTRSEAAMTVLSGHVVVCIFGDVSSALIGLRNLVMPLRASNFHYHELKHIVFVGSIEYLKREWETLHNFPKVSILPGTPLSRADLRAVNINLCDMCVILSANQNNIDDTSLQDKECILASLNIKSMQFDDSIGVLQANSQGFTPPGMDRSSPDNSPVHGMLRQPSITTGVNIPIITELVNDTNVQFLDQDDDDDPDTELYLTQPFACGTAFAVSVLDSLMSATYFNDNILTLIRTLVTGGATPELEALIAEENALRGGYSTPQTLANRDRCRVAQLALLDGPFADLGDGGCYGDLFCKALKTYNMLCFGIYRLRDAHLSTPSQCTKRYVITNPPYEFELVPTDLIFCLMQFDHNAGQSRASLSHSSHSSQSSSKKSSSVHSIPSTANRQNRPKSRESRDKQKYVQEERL
# T1 sequence (Q16558 whole entry partner): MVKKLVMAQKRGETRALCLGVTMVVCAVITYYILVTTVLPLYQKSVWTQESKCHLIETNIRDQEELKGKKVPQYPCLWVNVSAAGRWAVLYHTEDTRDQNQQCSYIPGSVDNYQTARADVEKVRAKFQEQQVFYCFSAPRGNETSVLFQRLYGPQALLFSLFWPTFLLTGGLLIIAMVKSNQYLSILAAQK
# Source text: In order to discover novel maxi-K channel blockers, a robust and reliable functional assay is required. High throughput screening assays with ion channels have been developed (see Aurora Biosciences J. E. Gonzalez et al., DDT, 4, 431-439, 1999). For example, transient transfection of maxi-K channel alpha and beta1 subunits into TsA-201 cells leads to the maxi-K channel controlling the membrane potential of those cells, under appropriate experimental conditions. However, transient transfection experiments are limited because, typically, the transfection has to occur for every experiment, the cells are only available for assay twice a week and results can be variable depending on the transfection efficiency. This invention relates to a new functional assay, which utilizes HEK-293 cells, which once transfected remains as such, thereby eliminating the need for further transfection. The claimed method also provides more reliable reading of the maxi-K channel activity.
# [3] = target: T2, maxi-K channel (alpha and beta 1 subunits) in stably transfected HEK-293 cells (Homo sapiens, UniProt Q12791); assay: VIPR/FRET membrane potential assay, HEK-293 cells stably transfected with alpha and beta 1 subunits of the maxi-K channel
# T2 construct: expressed in transfected cells
# T2 sequence (Q12791 whole entry): as the sequence (Q12791 whole entry) above
# T2 sequence (Q16558 whole entry partner): as the sequence (Q16558 whole entry partner) above
# Protocol: Transfection of the alpha and betal subunits of the maxi-K channel in HEK-293 cells was carried out as follows: HEK-293 cells were plated in 100 mm tissue culture treated dishes at a density of 3×10^6 cells per dish, and a total of five dishes were prepared. Cells were grown in a medium consisting of Dulbecco's Modified Eagle Medium (DMEM) supplemented with 10% Fetal Bovine serum, 1× L-Glutamine, and 1× Penicillin/Streptomycin, at 37° C., 10% CO2. For transfection with Maxi-K hα (pCIneo) and Maxi-K hβ1 (pIRESpuro) DNAs, 150 μl FuGENE6™ was added dropwise into 10 ml of serum free/phenol-red free DMEM and allowed to incubate at room temperature for 5 minutes. Then, the FuGENE6™ solution was added dropwise to a DNA solution containing 25 μg of each plasmid DNA, and incubated at room temperature for 30 minutes. After the incubation period, 2 ml of the FuGENE6™/DNA solution was added dropwise to each plate of cells and the cells were allowed to grow two days under the same conditions as described above. At the end of the second day, cells were put under selection media which consisted of DMEM supplemented with both 600 μg/ml G418 and 0.75 μg/ml puromycin. Cells were grown until separate colonies were formed. Five colonies were collected and transferred to a 6 well tissue culture treated dish. A total of 75 colonies were collected. Cells were allowed to grow until a confluent monolayer was obtained. Cells were then tested for the presence of maxi-K channel alpha and beta1 subunits using an assay that monitors binding of ^125I-iberiotoxin-D19Y/Y36F to the channel. Cells expressing ^125I-iberiotoxin-D19Y/Y36F binding activity were then evaluated in a functional assay that monitors the capability of maxi-K channels to control the membrane potential of transfected HEK-293 cells using fluorescence resonance energy transfer (FRET) ABS technology with a VIPR instrument. The colony giving the largest signal to noise ratio was subjected to limiting dilution. For this, cells were resuspended at approximately 5 cells/ml, and 200 μl were plated in individual wells in a 96 well tissue culture treated plate, to add ca. one cell per well. A total of two 96 well plates were made. When a confluent monolayer was formed, the cells were transferred to 6 well tissue culture treated plates. A total of 62 wells were transferred. When a confluent monolayer was obtained, cells were tested using the FRET-functional assay. […]
# The plates are loaded into a voltage/ion probe reader (VIPR) instrument, and the fluorescence emission of both CC2DMPE and DiSBAC2(3) are recorded for 10 sec. At this point, 100 μl of high-potassium solution (mM): 140 KCl, 2 CaCl2, 1 MgCl2, 20 Hepes-KOH, pH 7.4, 10 glucose are added and the fluorescence emission of both dyes recorded for an additional 10 sec. […]
"effect on the magnitude of the signal caused by addition of high-potassium solution ([3]; stably transfected HEK-293 cells, FIG. 3)",SMILES,efficacy (inhibition of fluorescence signal) in the presence of Compound 1 [1],effect on fluorescence signal caused by high-potassium addition [1],effect on maxi-K channel activity [2],inhibition of control signal ([2]; 3 μM compound),"inhibition of control signal with increasing concentrations ([3]; 3 μM Compound A present in all wells, FIG. 4)","block of signal generated by addition of high-potassium solution ([3]; compound alone, no blocker of endogenous conductances, FIG. 3)","inhibition of signal generated by addition of high-potassium solution ([3]; in the presence of potassium channel blocker Compound A, FIG. 3)"
,COc1ccccc1C(=O)NCC1(c2ccccc2)CCC(=O)CC1 [Compound B],unaffected,concentration-dependent inhibition of the fluorescence signal,"neither Compound A, nor Compound B have any effect on maxi-K channel activity",,,,
,CC(=O)SCC(Cc1ccccc1)C(=O)NC(Cc1ccccc1)C(=O)NCCc1ccccc1 (stereo not drawn) [Compound 1],,not affected,,completely inhibits the control signal,concentration-dependent inhibition of the control signal,only partially blocks the signal,complete inhibition of the signal
no significant effect,CCCNC(=O)OC1CCC(CNC(=O)c2ccccc2OC)(c2ccccc2)CC1 (stereo not drawn) [Compound A],unaffected,concentration-dependent inhibition of the fluorescence signal,"neither Compound A, nor Compound B have any effect on maxi-K channel activity",,,,
